# In patent US9371319B2, “Pyrrolopyridineamino derivatives as MPS1 inhibitors” (priority 2011, dated 2016):
# Biological target: T1, full length MPS1 (Homo sapiens, UniProt P33981)
# T1 sequence (P33981 1-857): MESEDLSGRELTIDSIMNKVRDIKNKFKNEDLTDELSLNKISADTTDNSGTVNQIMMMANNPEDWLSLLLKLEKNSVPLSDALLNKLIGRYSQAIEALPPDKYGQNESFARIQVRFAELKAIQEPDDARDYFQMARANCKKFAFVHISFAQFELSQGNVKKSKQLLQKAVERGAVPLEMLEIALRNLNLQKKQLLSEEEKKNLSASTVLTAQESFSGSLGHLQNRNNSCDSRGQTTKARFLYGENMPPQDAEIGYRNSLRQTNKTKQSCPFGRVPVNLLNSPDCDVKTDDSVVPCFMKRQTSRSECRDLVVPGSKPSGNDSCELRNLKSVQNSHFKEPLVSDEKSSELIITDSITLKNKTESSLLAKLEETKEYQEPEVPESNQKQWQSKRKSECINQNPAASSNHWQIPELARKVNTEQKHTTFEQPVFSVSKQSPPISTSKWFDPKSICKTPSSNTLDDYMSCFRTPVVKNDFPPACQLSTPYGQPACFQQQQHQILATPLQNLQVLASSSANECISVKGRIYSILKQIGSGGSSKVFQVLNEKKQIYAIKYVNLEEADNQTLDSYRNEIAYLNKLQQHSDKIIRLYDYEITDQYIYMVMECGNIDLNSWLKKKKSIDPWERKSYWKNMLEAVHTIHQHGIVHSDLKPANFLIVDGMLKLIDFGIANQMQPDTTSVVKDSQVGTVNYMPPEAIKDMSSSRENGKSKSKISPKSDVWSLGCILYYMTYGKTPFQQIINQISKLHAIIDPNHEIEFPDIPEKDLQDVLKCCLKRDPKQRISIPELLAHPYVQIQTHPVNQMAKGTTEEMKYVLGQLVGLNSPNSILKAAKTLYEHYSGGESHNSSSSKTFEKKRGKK
# Experiment: biochemical
row,IC50 [nM],Structure (SMILES)
1,9,"Cn1cc(-c2[nH]c3cc(Nc4ccc(C(=O)N5CCS(=O)(=O)CC5)cc4Cl)ncc3c2Cl)cn1 [Example 196, (3-Chloro-4-(3-chloro-2-(1-methyl-1H-pyrazol-4-yl)-1H-pyrrolo[3,2-c]pyridin-6-ylamino)phenyl)(S,S-dioxo-thiomorpholino)methanone]"
2,164,"COc1cc(C(F)(F)F)ccc1Nc1cc2[nH]c(-c3cnn(C)c3)cc2cn1 [Example 156, N-(2-Methoxy-4-(trifluoromethyl)phenyl)-2-(1-methyl-1H-pyrazol-4-yl)-1H-pyrrolo[3,2-c]pyridin-6-amine]"
3,68,"CN(C)C(=O)c1ccc(Nc2cc3[nH]c(-c4cnn(C)c4)cc3cn2)c(OC(F)(F)F)c1 [Example 113, N,N-Dimethyl-4-(2-(1-methyl-1H-pyrazol-4-yl)-1H-pyrrolo[3,2-c]pyridin-6-ylamino)-3-(trifluoromethoxy)benzamide]"
4,53,"CN(C)C(=O)c1ccc(Nc2cc3c(cn2)c(Cl)c(-c2cnn(C)c2)n3CC2CC2)c(Cl)c1 [Example 192, 3-Chloro-4-(3-chloro-1-(cyclopropylmethyl)-2-(1-methyl-1H-pyrazol-4-yl)-1H-pyrrolo[3,2-c]pyridin-6-ylamino)-N,N-dimethylbenzamide]"
5,12,"COc1cc(C(=O)N2CCOCC2)ccc1Nc1cc2[nH]c(-c3cnn(C)c3)cc2cn1 [Example 118, (3-Methoxy-4-(2-(1-methyl-1H-pyrazol-4-yl)-1H-pyrrolo[3,2-c]pyridin-6-ylamino)phenyl)(morpholino)methanone]"
6,80,"CC(=O)N1CCN(c2ccc(Nc3cc4[nH]c(-c5cn[nH]c5)cc4cn3)cc2)CC1 [Example 169, 1-(4-(4-(2-(1H-Pyrazol-4-yl)-1H-pyrrolo[3,2-c]pyridin-6-ylamino)phenyl)piperazin-1-yl)ethanone]"
7,7,"COc1cc(OC2CCN(C)CC2)ccc1Nc1cc2[nH]c(-c3cn[nH]c3)cc2cn1 [Example 166, N-(2-Methoxy-4-(1-methylpiperidin-4-yloxy)phenyl)-2-(1H-pyrazol-4-yl)-1H-pyrrolo[3,2-c]pyridin-6-amine]"
8,10,COc1cc(C(=O)N2CC(OC)C2)ccc1Nc1cc2c(cn1)cc(-c1cnco1)n2C(=O)OC(C)(C)C [Example 97]
9,2,"CS(=O)(=O)c1ccc(Nc2cc3[nH]c(-c4cn[nH]c4)cc3cn2)c(Cl)c1 [Example 154, N-(2-chloro-4-(methylsulfonyl)phenyl)-2-(1H-pyrazol-4-yl)-1H-pyrrolo[3,2-c]pyridin-6-amine]"
10,10,"COC1CN(C(=O)c2ccc(Nc3cc4[nH]c(-c5cnn(C)c5)cc4cn3)c(Cl)c2)C1 [Example 142, (3-Chloro-4-(2-(1-methyl-1H-pyrazol-4-yl)-1H-pyrrolo[3,2-c]pyridin-6-ylamino)phenyl)(3-methoxyazetidin-1-yl)methanone]"
11,8.4,"CN(C)C(=O)c1ccc(Nc2cc3[nH]c(-c4cnn(C)c4)c(Cl)c3cn2)c(Cl)c1 [Example 190, 3-Chloro-4-(3-chloro-2-(1-methyl-1H-pyrazol-4-yl)-1H-pyrrolo[3,2-c]pyridin-6-ylamino)-N,N-dimethylbenzamide]"
12,421,"Cn1cc(-c2[nH]c3cc(Nc4ccccc4Cl)ncc3c2Cl)cn1 [Example 193, 3-Chloro-N-(2-chlorophenyl)-2-(1-methyl-1H-pyrazol-4-yl)-1H-pyrrolo[3,2-c]pyridin-6-amine]"
13,7,"COc1cc(C(=O)N2CCS(=O)(=O)CC2)ccc1Nc1cc2[nH]c(-c3cnn(C)c3)cc2cn1 [Example 115, (3-Methoxy-4-(2-(1-methyl-1H-pyrazol-4-yl)-1H-pyrrolo[3,2-c]pyridin-6-ylamino)phenyl)(thiomorpholino)methanone-S,S-dioxide]"
14,497,"COc1ccc(C(=O)N(C)C)cc1Nc1cc2[nH]c(-c3cnn(C)c3)cc2cn1 [Example 114, 4-Methoxy-N,N-dimethyl-3-(2-(1-methyl-1H-pyrazol-4-yl)-1H-pyrrolo[3,2-c]pyridin-6-ylamino)benzamide]"
